Assay results taken from US8841312B2, “Fused pyridine, pyrimidine and triazine compounds as cell cycle inhibitors” (Amgen Inc., priority 2007, dated 2014).

Target: Cdk4/CyclinD1 (Homo sapiens (Human), UniProt P11802)
Assay: Cdk4 kinase inhibition assay with recombinant Cdk4/CyclinD1, Rb substrate, [33P]-ATP filter plate
Type: biochemical
Settings: 25 μM ATP, read-out: Cdk 4 IC50
Procedure: The Cdk4 and Cdk6 inhibitory activity of the compounds is measured with a kinase inhibition assay using recombinant Cdk4/CyclinD1 or Cdk6/CyclinD3 protein complexes. The protein substrate used in the assay is the retinoblastoma protein (Rb). The kinase reactions are carried out in a 96-well filter plate (MSDV N6B50, Millipore). […] The mixture is incubated at room temperature for 1 hour and the proteins precipitated with an equal volume of 20% TCA. The plates are washed with 10% TCA according to the manufacturer's instruction and dried at room temperature. The amount of the phosphorylated Rb is determined with a TopCount (PerkinElmer). The IC50 of a compound is determined by nonlinear regression curve fitting using software program Prism 5 (GraphPad Software).

Chain of Cdk4/CyclinD1 (P11802 whole entry): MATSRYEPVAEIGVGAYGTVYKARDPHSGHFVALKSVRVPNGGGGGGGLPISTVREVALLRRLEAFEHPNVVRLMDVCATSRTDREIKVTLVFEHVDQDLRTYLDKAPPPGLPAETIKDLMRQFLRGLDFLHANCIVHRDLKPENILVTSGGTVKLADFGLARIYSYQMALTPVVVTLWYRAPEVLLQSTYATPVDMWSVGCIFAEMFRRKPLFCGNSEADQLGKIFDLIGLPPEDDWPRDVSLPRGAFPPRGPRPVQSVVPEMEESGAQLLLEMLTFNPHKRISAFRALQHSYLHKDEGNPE
Chain of Cdk4/CyclinD1 (P24385 whole entry partner): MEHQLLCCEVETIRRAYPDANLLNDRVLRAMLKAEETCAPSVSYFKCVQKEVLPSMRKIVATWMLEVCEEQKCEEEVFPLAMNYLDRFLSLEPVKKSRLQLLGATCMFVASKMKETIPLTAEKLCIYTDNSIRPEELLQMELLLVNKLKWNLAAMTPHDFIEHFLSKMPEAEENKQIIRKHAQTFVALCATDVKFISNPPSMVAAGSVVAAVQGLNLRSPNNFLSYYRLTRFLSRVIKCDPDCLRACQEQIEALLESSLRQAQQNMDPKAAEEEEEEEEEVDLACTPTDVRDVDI

| Compound | IC50 |
| --- | --- |
| CC(C)(O)CN1CCN(c2ccc(Nc3ncc4c5ccnc(F)c5n(C5CCCC5)c4n3)nc2)CC1 [Example 172, 1-(4-(6-((9-Cyclopentyl-8-fluoro-9H-pyrido[4′,3′:4,5]pyrrolo[2,3-d]pyrimidin-2-yl)amino)-3-pyridinyl)-1-piperazinyl)-2-methyl-2-propanol] | 5.6 nM |
| c1ncc2c(n1)c1cnc(Nc3ccc(N4CCNCC4)cn3)nc1n2C1CCCC1 [Example 59, 5-Cyclopentyl-N-(5-(1-piperazinyl)-2-pyridinyl)-5H-pyrimido[4′,5′:4,5]pyrrolo[2,3-d]pyrimidin-7-amine] | 15 nM |
| C[C@H](O)Cn1c2cnccc2c2cnc(Nc3ccc(N4CCNC(C)(C)C4)nn3)nc21 [Example 413] | 33 nM |
| C[C@H]1CN(c2ccc(Nc3ncc4c5ccncc5n([C@H]5CCC[C@H]5O)c4n3)nn2)CCN1 [Example 363] | 211 nM |
| C[C@@H](O)Cn1c2cnccc2c2cnc(Nc3ccc(N4CCNC(C)(C)C4)cn3)nc21 [Example 426] | 115 nM |
| C[C@H](O)Cn1c2cnccc2c2cnc(Nc3ccc(N4CCNCC4)nn3)nc21 [Example 409] | 281 nM |
| CC[C@H](C)n1c2cnccc2c2cnc(Nc3ccc(N4CCNCC4)cn3)nc21 [Example 330] | 248 nM |
| C[C@H]1CN(c2ccc(Nc3ncc4c5ccncc5n(C5CCCC5)c4n3)nc2)CCN1 [Example 62] | 2 nM |
| CN(C)CC(=O)N1CCN(c2ccc(Nc3ncc4c5ccnc(F)c5n(C5CCCC5)c4n3)nc2)CC1 [Example 193, 9-Cyclopentyl-N-(5-(4-((dimethylamino)acetyl)-1-piperazinyl)-2-pyridinyl)-8-fluoro-9H-pyrido[4′,3′:4,5]pyrrolo[2,3-d]pyrimidin-2-amine] | 68 nM |
| CC1(C)CN(c2ccc(Nc3ncc4c5ccncc5n([C@@H]5CCOC5)c4n3)nc2)CCN1 [Example 432] | 17 nM |
| O=C(CO)N1CCN(c2ccc(Nc3ncc4c5ccncc5n(C5CCCC5)c4n3)nc2)CC1 [Example 151, 2-(4-(6-((9-Cyclopentyl-9H-pyrido[4′,3′:4,5]pyrrolo[2,3-d]pyrimidin-2-yl)amino)-3-pyridinyl)-1-piperazinyl)-2-oxoethanol] | 3 nM |
| N[C@@H]1CCN(c2cnc(Nc3ncc4c5ccncc5n(C5CCCC5)c4n3)cn2)C1 [Example 90] | 5.6 nM |
| O[C@@H]1CCN(c2ccc(Nc3ncc4c5ccncc5n([C@H]5CCC[C@@H]5O)c4n3)nn2)C1 [Example 408] | 44 nM |
| N[C@H]1CCN(c2cnc(Nc3ncc4c5ccncc5n(C5CCCC5)c4n3)cn2)C1 [Example 89] | 7.6 nM |
| CNC1CCN(c2ccc(Nc3ncc4c5ccncc5n([C@H]5CCC[C@H]5O)c4n3)nc2)CC1 [Example 393] | 300 nM |
| O[C@@H]1CCN(c2ccc(Nc3ncc4c5ccncc5n([C@H]5CCC[C@@H]5O)c4n3)nc2)C1 [Example 403] | 350 nM |
| CC[C@H](C)n1c2cnccc2c2cnc(Nc3ccc(N4CCNCC4)nn3)nc21 [Example 331] | 390 nM |
| C[C@H](CO)n1c2cnccc2c2cnc(Nc3ccc(N4CCNCC4)nn3)nc21 [Example 384] | 143 nM |
| C[C@@H](O)Cn1c2cnccc2c2cnc(Nc3ccc(N4CCNC(C)(C)C4)nn3)nc21 [Example 418] | 112 nM |
| C[C@@H](CO)n1c2cnccc2c2cnc(Nc3ccc(N4CCNC(C)(C)C4)nn3)nc21 [Example 379] | 11 nM |
| O[C@@H]1CCN(c2ccc(Nc3ncc4c5ccncc5n([C@@H]5CCOC5)c4n3)nn2)C1 [Example 392] | 219 nM |
| CCN(CC)C1CCN(c2ccc(Nc3ncc4c5ccnc(O)c5n(C5CCCC5)c4n3)nn2)CC1 [Example 282, 9-cyclopentyl-2-((6-(4-(diethylamino)-1-piperidinyl)-3-pyridazinyl)amino)-9H-pyrido[4′,3′:4,5]pyrrolo[2,3-d]pyrimidin-8-ol] | 2.8 nM |
| O[C@H]1CCC[C@@H]1n1c2cnccc2c2cnc(Nc3ccc(N4CCNCC4)cn3)nc21 [Example 398] | 330 nM |
| C[C@H]1CN(c2ccc(Nc3ncc4c5ccnc(F)c5n(C5CCCC5)c4n3)nc2)CCN1 [Example 179, 9-cyclopentyl-8-fluoro-N-(5-((3S)-3-methyl-1-piperazinyl)-2-pyridinyl)-9H-pyrido-[4′,3′:4,5]pyrrolo[2,3-d]pyrimidin-2-amine] | 3.4 nM |
| C[C@H]1CN(c2ccc(Nc3ncc4c5ccncc5n([C@@H]5CCOC5)c4n3)nn2)CCN1 [Example 429] | 92 nM |
| C[C@@H](O)Cn1c2cnccc2c2cnc(Nc3ccc(N4CC[C@@H](O)C4)nn3)nc21 [Example 419] | 162 nM |
| CN1CCN(c2nc(Nc3ncc4c5ccncc5n(C5CCCC5)c4n3)ns2)CC1 [Example 133] | 100 nM |

| Compound | IC50 |
| --- | --- |
| CN(C)C1CCN(c2ccc(Nc3ncc4c5ccncc5n([C@H]5CC[C@H](O)CC5)c4n3)nn2)CC1 [Example 287, Trans-4-(2-((6-(4-(dimethylamino)-1-piperidinyl)-3-pyridazinyl)amino)-9H-pyrido[4′,3′:4,5]pyrrolo[2,3-d]pyrimidin-9-yl)cyclohexanol] | 123 nM |
| C[C@H](O)Cn1c2cnccc2c2cnc(Nc3ccc(N4CC[C@@H](O)C4)nn3)nc21 [Example 414] | 2.6 nM |
| O[C@@H]1CCN(c2ccc(Nc3ncc4c5ccncc5n([C@H]5CCOC5)c4n3)nc2)C1 [Example 396] | 238 nM |
| O=C(O)CC1CCN(c2ccc(Nc3ncc4c5ccnc(F)c5n(C5CCCC5)c4n3)nc2)CC1 [Example 175, (1-(6-((9-Cyclopentyl-8-fluoro-9H-pyrido[4′,3′:4,5]pyrrolo[2,3-d]pyrimidin-2-yl)amino)-3-pyridinyl)-4-piperidinyl)acetic acid] | 37 nM |
| N#CCC1CCN(c2ccc(Nc3ncc4c5ccnc(F)c5n(C5CCCC5)c4n3)nc2)CC1 [Example 173, (1-(6-((9-Cyclopentyl-8-fluoro-9H-pyrido[4′,3′:4,5]pyrrolo[2,3-d]pyrimidin-2-yl)amino)-3-pyridinyl)-4-piperidinyl)acetonitrile] | 56 nM |
| CCN(CC)C1CCN(c2ccc(Nc3ncc4c5ccnc(OC)c5n(C5CCCC5)c4n3)nn2)CC1 [Example 283, 9-cyclopentyl-N-(6-(4-(diethylamino)-1-piperidinyl)-3-pyridazinyl)-8-methoxy-9H-pyrido[4′,3′:4,5]pyrrolo[2,3-d]pyrimidin-2-amine] | 11 nM |
| c1cc2c3cnc(Nc4ccc(NCC5CCCCN5)nn4)nc3n(C3CCCC3)c2cn1 (centres unmarked) [Example 99] | 4.9 nM |
| CN(C)C1CCN(C(=O)Cc2ccc(Nc3ncc4c5ccncc5n(C5CCCC5)c4n3)nc2)CC1 [Example 243, 9-cyclopentyl-N-(5-(2-(4-(dimethylamino)-1-piperidinyl)-2-oxoethyl)-2-pyridinyl)-9H-pyrido[4′,3′:4,5]pyrrolo[2,3-d]pyrimidin-2-amine] | 7 nM |
| C[C@H]1CN(c2ccc(Nc3ncc4c5ccncc5n([C@@H](C)CO)c4n3)nn2)CCN1 [Example 377] | 73 nM |
| CNC1CCN(c2ccc(Nc3ncc4c5ccncc5n([C@H]5CCC[C@@H]5O)c4n3)nn2)CC1 [Example 406] | 360 nM |
| c1cc2c3cnc(Nc4cnc(N5CCCNCC5)cn4)nc3n(C3CCCC3)c2cn1 [Example 86] | 6.4 nM |
| COCC(C)(C)n1c2cnccc2c2cnc(Nc3ccc(N4CCC(N(C)C)CC4)nn3)nc21 [Example 274, N-(6-(4-(dimethylamino)-1-piperidinyl)-3-pyridazinyl)-9-(2-methoxy-1,1-dimethylethyl)-9H-pyrido[4′,3′:4,5]pyrrolo[2,3-d]pyrimidin-2-amine] | 1000 nM |
| C[C@H](CO)n1c2cnccc2c2cnc(Nc3ccc(N4CC[C@@H](O)C4)cn3)nc21 [Example 382] | 152 nM |
| NCC1CCCN(c2ccc(Nc3ncc4c5ccncc5n(C5CCCC5)c4n3)nn2)C1 (centres unmarked) [Example 95] | 4.4 nM |
| C[C@H]1CN(c2ccc(Nc3ncc4c5ccncc5n([C@H]5CCC[C@@H]5O)c4n3)nn2)CCN1 [Example 407] | 35 nM |
| CN1CCOC2(CCN(c3ccc(Nc4ncc5c6ccncc6n(C6CCCC6)c5n4)nn3)CC2)C1 [Example 251, 9-cyclopentyl-N-(6-(4-methyl-1-oxa-4,9-diazaspiro[5.5]undec-9-yl)-3-pyridazinyl)-9H-pyrido[4′,3′:4,5]pyrrolo[2,3-d]pyrimidin-2-amine] | 3.2 nM |
| CC[C@H](C)n1c2cnccc2c2cnc(Nc3ccc(N4CC[C@@H](O)C4)nn3)nc21 [Example 337] | 22 nM |
| COCCn1c2cnccc2c2cnc(Nc3ccc(N4CCC(N(C)C)CC4)nn3)nc21 [Example 315] | 1380 nM |
| C[C@H](O)Cn1c2cnccc2c2cnc(Nc3ccc(N4CCC(N(C)C)CC4)nn3)nc21 [Example 410] | 240 nM |
| C[C@H]1CN(c2ccc(Nc3ncc4c5ccncc5n([C@H]5CCC[C@@H]5O)c4n3)nc2)CCN1 [Example 401] | 170 nM |
| C[C@@H]1CNCCN1c1ccc(Nc2ncc3c4ccnc(F)c4n(C4CCCC4)c3n2)nc1 [Example 180, 9-Cyclopentyl-8-fluoro-N-(5-((2R)-2-methyl-1-piperazinyl)-2-pyridinyl)-9H-pyrido[4′,3′:4,5]pyrrolo[2,3-d]pyrimidin-2-amine] | 2 nM |
| CC1(C)CN(c2ccc(Nc3ncc4c5ccncc5n([C@H]5CCC[C@@H]5O)c4n3)nc2)CCN1 [Example 402] | 175 nM |
| C[C@@H](O)Cn1c2cnccc2c2cnc(Nc3ccc(N4CCC(N(C)C)CC4)nn3)nc21 [Example 416] | 271 nM |
| C[C@@H](CO)n1c2cnccc2c2cnc(Nc3ccc(N4CC[C@@H](O)C4)nn3)nc21 [Example 374] | 86 nM |
| CN(C)C1CCN(c2ccc(Nc3ncc4c5ccncc5n(C5CCCC5)c4n3)nc2)CC1 [Example 12] | 9.6 nM |
| CC[C@H](C)n1c2cnccc2c2cnc(Nc3ccc(N4CCN[C@@H](C)C4)cn3)nc21 [Example 329] | 500 nM |
